# From patent US20050096370A1, “Method for inhibiting tumor angiogenesis and tumor growth” (Bizbiotech Co., Ltd., priority 2003, published 2005)
# Legend:
# VEGF = VEGF protein ELISA in Hep3B cell-conditioned medium; format: cell-based, human; settings: Hep3B cells, hypoxic, 24 hours, versus untreated hypoxic cells (P<0.001)
# Method: FIG. 3 is a histogram showing the amount of VEGF protein. […] The VEGF concentrations were quantified by comparison with a series of VEGF standard samples included in the assay kit. VEGF level in each experiment was measured twice. Bars represent the mean of four separate experiments with the 95% confidence interval. * denotes statistical significance compared to control supernatants from cells cultured under normoxic conditions (P<0.001); # denotes statistical significance compared to control supernatants from cells cultured under hypoxic conditions (P<0.00 1).
# Immunoblotting was used to detect HIF-1 protein in cultured cells, as described (Chun et al., Biochem Pharmacol 2001 61:947-954). […] To quantify mRNAs for HIF-1α and HIF-1-regulated genes, we performed a highly sensitive, semi-quantitative reverse transcription-polymerase chain reaction (RT PCR), as described previously (Chun et al., J Cell Sci 2001 114:4051-4061). […] P-actin mRNA was measured as a PCR control. […] To assess whether the VEGF mRNA levels affected levels of VEGF protein secreted into the medium, we measured VEGF protein levels in Hep3B cell-conditioned medium. […] VEGF levels in the conditioned media were quantified by using the Quantikine human VEGF Immunoassay kit (R&D Systems, Minneapolis, Minn.) according to the manufacturer's recommended protocol. […]
# Hep3B hepatoma = Hep3B hepatoma xenograft tumor growth in nude mice; format: in vivo; settings: P<0.001 versus vehicle
# Method: Male nude mice were injected subcutaneously in the flank with 5×10^6 viable Hep3B hepatoma (A), NCI-H87 gastric carcinoma (B), SiHa cervical carcinoma (C), SK-N-MC neuroblastoma (E), or Caki-I renal carcinoma (F) cells. […] Tumor size was measured over time. […] Differences between tumor sizes in the vehicle- and YC-1-treated groups for mice with Hep3B tumors were compared using ANOVA and Duncan's multiple range tests. * denotes P<0.001 relative to the control. Differences between tumor sizes in the vehicle and YC-1-treated groups for mice with other tumors (B-E) were compared using a Mann-Whitney U test. Each number beneath the error bar represents the P value of the difference relative to the control.
# Male nude (BALB/cAnNC˜-nu/nu) mice were purchased from Charles River Japan Inc. (Shin-Yokohama, JAPAN). The animals were housed in a specific pathogen-free room under controlled temperature and humidity. All animal procedures were performed according to the established procedures of the Seoul National University Laboratory Animal Maintenance Manual. Eighty mice aged 7-8 weeks were injected with tumor cells for the xenograft experiments. […]
# Tumors were measured every 2 or 3 days with calipers in two dimensions and the tumor volumes were calculated using the formula: Volume=axb2/2, where a is the width at the widest point of the tumor and h is the width perpendicular to a. […]
structure (smiles),measurement,setting,value
"OCc1ccc(-c2nn(Cc3ccccc3)c3ccccc23)o1 [YC-1, 3-(5′-hydroxymethyl-2′-furyl)-1-benzylindazole]",VEGF protein level in medium,VEGF,decreased in a dose-dependent manner
same,"tumor volume, mean, last day of experiment",Hep3B hepatoma; YC-1 30 μg/g daily i.p. for 2 weeks after tumors established (100-150 mm^3),126 mm^3
same,"tumor volume, mean, last day of experiment","Hep3B hepatoma; YC-1 daily i.p. for 2 weeks, started the day after tumor cell injection",422 mm³
